Biological target: Glutamate NMDA receptor
Experiment: Displacement of [3H]TCP from the TCP site of NMDA receptor in rat brain homogenate
Format: tissue-based

| SMILES | IC50 [nM] |
| --- | --- |
| c1csc(C2(c3cccs3)CC3c4ccccc4C2c2cccc[n+]23)c1 (configuration not stated) | 3.6 |
| OCCc1ccc(C2(c3ccc(CCO)s3)CC3c4ccccc4C2c2cccc[n+]23)s1 (configuration not stated) | 12400 |
| FCCc1ccc(C2(c3cccs3)CC3c4ccccc4C2c2cccc[n+]23)s1 (stereo in doubt; 18) | 47 |
| FCCc1ccc(C2(c3cccs3)CC3c4ccccc4C2c2cccc[n+]23)s1 (stereo in doubt; 19) | 89 |
| OCCc1ccc(C2(c3cccs3)CC3c4ccccc4C2c2cccc[n+]23)s1 (stereo in doubt; 20) | 61 |
| OCCc1ccc(C2(c3cccs3)CC3c4ccccc4C2c2cccc[n+]23)s1 (stereo in doubt; 21) | 141 |
| c1ccc(C2(N3CCCCC3)CCCCC2)cc1 [PHENCYCLIDINE] | 47 |

— ChEMBL document CHEMBL1130646, “Excellent acceleration of the Diels-Alder reaction by microwave irradiation for the synthesis of new fluorine-substituted ligands of NMDA receptor” (Bioorg Med Chem Lett, 1998)
